System: LPS-induced release of endogenous TNFα from human macrophages from healthy donors
Assay: ELISA-based TNFα release assay, LPS-induced, human macrophages from healthy donors
Assay type: cell-based
Details: Macrophage, LPS 5 ng/ml, 2 hours, recombinant murine antibodies at 10 μg/ml, Batimastat at 10 μM
Method: To obtain human macrophages, peripheral blood mononuclear cells (PBMCs) from 4 healthy donors were used. Cells from 5 ml human blood were resuspended in 20 ml of DMEM medium (Corning, USA) supplemented with 10% FCS (Atlanta Biological, USA) and Penicillin/Streptomycin (Corning, USA) (DMEM/FCS) and were then incubated on two 10 cm petri dishes (Thermo Fisher, USA) at 37° C., 5% CO2 for 3h. Non-adherent cells were subsequently removed and 6 ml of DMEM/FCS supplemented with 10 ng/ml human MCSF (Peprotech, USA) (DMEM/FCS/MCSF) was added per plate. Both plates were incubated at 37° C., 5% CO2 for 2 days, then 2 ml of DMEM/FCS/MCSF was added to each plate on day 2 and 4. On day 5, all medium was removed and attached cells were washed once with 5 ml PBS (Corning, USA). 2 ml of Accutase (Promocell, USA) solution was added to each plate and incubated at 37° C. for 15 min. 10 ml of DMEM/FCS was added to each plate and detached cells were collected in a 15 ml Falcon tube. Cells were subsequently pelleted in a tabletop centrifuge (Eppendorf, USA) at 1,500 rpm for 5 min. The medium was removed and the cells were resuspended in 2 ml of DMEM/FCS. 10 μl from this cell suspension was manually counted in a hemocytometer (Thermo Fisher, USA). […]

CNC(=O)[C@H](Cc1ccccc1)NC(=O)[C@H](CC(C)C)[C@H](CSc1cccs1)C(=O)NO [Batimastat]
inhibition at 10 µM: 68.3%
